Assay results published in patent publication US20260262643A1, “HERBICIDAL BENZOXAZINES” (FMC CORPORATION, priority 2022, published 2026).

Columns and labels:
sedge, umbrella = experiment: Test D flooded paddy test; type: in vivo, Cyperus difformis; settings: 250 g ai/ha, applied to paddy water, visual rating after 13 to 14 days, scale 0 to 100 (0 no effect, 100 complete control)
Method in brief: (§1)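 Plants grown to the 2-leaf stage; pots flooded to 3 cm above soil at treatment and held at that depth throughout. Test compounds applied directly to the paddy water. After 13 to 14 days in a greenhouse, response was rated visually versus controls on a 0 (no effect) to 100 (complete control) scale.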

pigweed, palmer [1] = experiment: Test C preemergence; type: in vivo, Amaranthus palmeri; settings: preemergence, 0 to 100 scale (0 no effect, 100 complete control)
Method in brief: (§2)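 Soil-applied (pre) and foliar (post, 1–2 leaf, 2–10 cm) sprays; surfactant-containing non-phytotoxic solvent vehicle; loam/sand substrate. Readout: visual % control at 10 d, greenhouse, versus untreated.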

horseweed = experiment: Test C postemergence; type: in vivo, Erigeron canadensis; settings: 10 days
Method in brief: as §2

oat, wild [2] = experiment: Test C preemergence; type: in vivo, Avena fatua; settings: preemergence, 0 to 100 scale (0 no effect, 100 complete control)
Method in brief: as §2

ryegrass, Italian [3] = experiment: Test C preemergence; type: in vivo, Lolium multiflorum; settings: preemergence, 0 to 100 scale (0 no effect, 100 complete control)
Method in brief: as §2

rice = experiment: Test D flooded paddy test; type: in vivo, Oryza sativa; settings: 250 g ai/ha, applied to paddy water, visual rating after 13 to 14 days, scale 0 to 100 (0 no effect, 100 complete control)
Method in brief: as §1

barnyardgrass [4] = experiment: Test C postemergence; type: in vivo, Echinochloa crusgalli; settings: 10 days
Method in brief: as §2

kochia [5] = experiment: Test C postemergence; type: in vivo, Bassia scoparia; settings: 125 g ai/ha, postemergence, 10 days; 0 to 100 scale, 0 no effect, 100 complete control
Method in brief: as §2

galium = experiment: Test C postemergence; type: in vivo, Galium aparine; settings: 10 days
Method in brief: as §2

ducksalad = experiment: Test D flooded paddy test; type: in vivo, Heteranthera limosa; settings: 250 g ai/ha, applied to paddy water, visual rating after 13 to 14 days, scale 0 to 100 (0 no effect, 100 complete control)
Method in brief: as §1

kochia [6] = experiment: Test C preemergence; type: in vivo, Bassia scoparia; settings: preemergence, 0 to 100 scale (0 no effect, 100 complete control)
Method in brief: as §2

corn [7] = experiment: Test C preemergence; type: in vivo, Zea mays; settings: preemergence, 0 to 100 scale (0 no effect, 100 complete control)
Method in brief: as §2

oat, wild [8] = experiment: Test C postemergence; type: in vivo, Avena fatua; settings: 125 g ai/ha, postemergence, 10 days; 0 to 100 scale, 0 no effect, 100 complete control
Method in brief: as §2

green foxtail [9] = experiment: Test C preemergence; type: in vivo, Setaria viridis; settings: preemergence, 0 to 100 scale (0 no effect, 100 complete control)
Method in brief: as §2

barnyardgrass [10] = experiment: Test D flooded paddy test; type: in vivo, Echinochloa crus-galli; settings: 250 g ai/ha, applied to paddy water, visual rating after 13 to 14 days, scale 0 to 100 (0 no effect, 100 complete control)
Method in brief: as §1

ryegrass, Italian [11] = experiment: Test C postemergence; type: in vivo, Lolium multiflorum; settings: 125 g ai/ha, postemergence, 10 days; 0 to 100 scale, 0 no effect, 100 complete control
Method in brief: as §2

ragweed [12] = experiment: Test C postemergence; type: in vivo, Ambrosia artemisiifolia; settings: 125 g ai/ha, postemergence, 10 days; 0 to 100 scale, 0 no effect, 100 complete control
Method in brief: as §2

barnyardgrass [13] = experiment: Test C preemergence; type: in vivo, Echinochloa crusgalli; settings: 0 to 100 scale (0 no effect, 100 complete control)
Method in brief: as §2

wheat [14] = experiment: Test C preemergence; type: in vivo, Triticum aestivum; settings: preemergence, 0 to 100 scale (0 no effect, 100 complete control)
Method in brief: as §2

blackgrass [15] = experiment: Test C preemergence; type: in vivo, Alopecurus myosuroides; settings: 0 to 100 scale (0 no effect, 100 complete control)
Method in brief: as §2

green foxtail [16] = experiment: Test C postemergence; type: in vivo, Setaria viridis; settings: 10 days
Method in brief: as §2

pigweed, palmer [17] = experiment: Test C postemergence; type: in vivo, Amaranthus palmeri; settings: 125 g ai/ha, postemergence, 10 days; 0 to 100 scale, 0 no effect, 100 complete control
Method in brief: as §2

soybean [18] = experiment: Test C preemergence; type: in vivo, Glycine max; settings: preemergence, 0 to 100 scale (0 no effect, 100 complete control)
Method in brief: as §2

wheat [19] = experiment: Test C postemergence; type: in vivo, Triticum aestivum; settings: 125 g ai/ha, postemergence, 10 days; 0 to 100 scale, 0 no effect, 100 complete control
Method in brief: as §2

ragweed [20] = experiment: Test C preemergence; type: in vivo, Ambrosia artemisiifolia; settings: preemergence, 0 to 100 scale (0 no effect, 100 complete control)
Method in brief: as §2

corn [21] = experiment: Test C postemergence; type: in vivo, Zea mays; settings: 10 days
Method in brief: as §2

soybean [22] = experiment: Test C postemergence; type: in vivo, Glycine max; settings: 125 g ai/ha, postemergence, 10 days; 0 to 100 scale, 0 no effect, 100 complete control
Method in brief: as §2

blackgrass [23] = experiment: Test C postemergence; type: in vivo, Alopecurus myosuroides; settings: 10 days
Method in brief: as §2

[24] = 125 g ai/ha, postemergence, 0 to 100 scale, 0 no effect, 100 complete control
[25] = Postemergence, 500 g ai/ha, visual 0 to 100 scale (0 no effect, 100 complete control)
[26] = Preemergence, 500 g ai/ha, visual rating after 10 days
[27] = Test C, preemergence, 125 g ai/ha

COc1ccc(-n2cnc(C(C)C)n2)cc1C(=O)N1C[C@H](C)Oc2c(F)cccc21 [Compound 269]
90: Plant response rating, Horseweed (horseweed; [25]) | Oat, Wild plant response rating (oat, wild [2]; 500 g ai/ha) | Plant response rating, Galium (galium; [24]) | Kochia plant response rating (kochia [6]; Test C, 125 g ai/ha) | Corn plant response rating (corn [7]; 500 g ai/ha) | Plant response rating, Blackgrass (blackgrass [15]; [26]) | Blackgrass plant response rating (blackgrass [15]; [27]) | Plant response rating, Foxtail, Green (green foxtail [16]; [24]) | Plant response rating, Foxtail, Green (green foxtail [16]; [25]) | Plant response rating, Pigweed, Palmer (pigweed, palmer [17]) | Soybean plant response rating (soybean [18]; 500 g ai/ha) | Soybean plant response rating (soybean [18]; Test C, 125 g ai/ha) | Plant response rating, Blackgrass (blackgrass [23]; [25])
100: Pigweed, Palmer plant response rating (pigweed, palmer [1]; 500 g ai/ha) | Pigweed, Palmer plant response rating (pigweed, palmer [1]; Test C, 125 g ai/ha) | Ryegrass, Italian plant response rating (ryegrass, Italian [3]; 500 g ai/ha) | Ryegrass, Italian plant response rating (ryegrass, Italian [3]; Test C, 125 g ai/ha) | Plant response rating, Barnyardgrass (barnyardgrass [4]; [25]) | Plant response rating, Galium (galium; [25]) | Plant response rating, Ducksalad (Flood) (ducksalad) | Kochia plant response rating (kochia [6]; 500 g ai/ha) | Foxtail, Green plant response rating (green foxtail [9]; 500 g ai/ha) | Foxtail, Green plant response rating (green foxtail [9]; Test C, 125 g ai/ha) | Plant response rating, Ryegrass, Italian (ryegrass, Italian [11]) | Plant response rating, Barnyardgrass (barnyardgrass [13]; [26]) | Barnyardgrass plant response rating (barnyardgrass [13]; [27]) | Wheat plant response rating (wheat [14]; 500 g ai/ha) | Wheat plant response rating (wheat [14]; Test C, 125 g ai/ha) | Ragweed plant response rating (ragweed [20]; 500 g ai/ha) | Ragweed plant response rating (ragweed [20]; Test C, 125 g ai/ha) | Plant response rating, Corn (corn [21]; [25]) | Plant response rating, Soybean (soybean [22])
10: Plant response rating, Rice (Flood) (rice)
20: Plant response rating, Horseweed (horseweed; [24]) | Corn plant response rating (corn [7]; Test C, 125 g ai/ha)
70: Plant response rating, Ragweed (ragweed [12])
98: Plant response rating, Sedge, Umbrella (Flood) (sedge, umbrella)
60: Oat, Wild plant response rating (oat, wild [2]; Test C, 125 g ai/ha)
45: Plant response rating, Barnyardgrass (Flood) (barnyardgrass [10])
80: Plant response rating, Barnyardgrass (barnyardgrass [4]; [24]) | Plant response rating, Kochia (kochia [5]) | Plant response rating, Oat, Wild (oat, wild [8]) | Plant response rating, Wheat (wheat [19]) | Plant response rating, Corn (corn [21]; [24]) | Plant response rating, Blackgrass (blackgrass [23]; [24])
